In PMC7764601 (Molecules, 2020):
Like-named read-outs stand apart in the source and are kept apart here. Marks after values point to notes of the source that are not given here.

Assays:
mice [1] = tested on: mice; design: method as in PMID 11234340, PMID 12484538, PMID 15652370; details: series 1, cited from earlier work
mice [2] = details: compounds obtained previously (series 1 and 2); cited from earlier work
mice [3] = tested on: mice; design: method as in PMID 11234340, PMID 12484538, PMID 15652370; details: series 1, cited from earlier work; remark: listed apart in the source
mice [4] = test: Spontaneous locomotor activity in mice (photoresistor actometers); format: in vivo; details: for ED50: confidence limits in parentheses, read-out: ED50 (mg/kg) ± SEM, spontaneous locomotor activity; for Number of impulses ± SEM (30min): i.p.
Experimental: (§1) The experiments were carried out on male albino Swiss mice (body weight 18–26 g). All of the animals were housed at constant humidity (60%) and temperature (25 °C) and kept on a 12 h light/dark cycle. Animals were fed a standard pellet diet with free access to tap water. All procedures were conducted according to Animal Care and Use Committee guidelines, and approved by the Ethical Committee of Jagiellonian University, Kraków.
(§2) Control and experimental groups consisted of 6–8 animals each. The investigated compounds were administered intraperitoneally as a suspension in 0.5% methylcellulose in a constant volume of 10 mL/kg.
Spontaneous locomotor activity in mice was measured in circular photoresistoractometers (32 cm in diameter). […] Thirty minutes after the injection of the investigated compounds, mice were placed in the actometers for 30 min. Each crossing of the light beam was recorded automatically. The amount of impulses was noted after 30 min.

mice [5] = test: “Hot plate” test in mice; format: in vivo; details: for change in vivo at 100 mg/kg / change in vivo at 200 mg/kg / Time of Reaction to Pain Stimulus (s) ± SEM: hot plate; for change in vivo at 100 mg/kg / change in vivo at 200 mg/kg / Time of Reaction to Pain Stimulus (s) ± SEM / analgesic effect in the hot plate test (in words): mice; for analgesic effect in the hot plate test (in words): applied doses (Table 4)
Experimental: as §1, §2
(§3) The statistical significance was calculated using a Student’s t-test. The ED50 values and their confidence limits were calculated according to the method of Litchfield and Wilcoxon.
(§4) Pain reactivity was measured in two tests: “hot plate” test (according to the method of Eddy and Leimbach) and “writhing” test in mice (according to Hendershot and Forsaith).
Animals were placed individually on the metal plate, heated to 55 ± 1 °C. The latency time (s) to the pain reaction (licking of the hind paws or jumping) was recorded by a stop-watch. A cutoff time of 45 s was used to prevent tissue damage.

mice [6] = test: “Writhing” test in mice (phenylbenzoquinone); format: in vivo; details: for ED50: Mus musculus, ip, read-out: ED50 (mg/kg) ± SEM, writhing test
Experimental: as §1, §2, §3, §4
Then, after 25 min, the irritant (phenylbenzoquinone, 0.02% solution, ethanol-water, 5:95) was also administered intraperitoneally in a constant volume of 0.25 mL. Five min after the application of the irritant,a 10 min long period of observation started, in which the number of writhing episodes was counted.
The analgesic effect of individual doses was expressed in percent:(1) % Analgesic effect=100−∑ of writing incidents in experimental group/∑ of writhing incidents in control group×100

in vivo = format: in vivo; details: male, albino Swiss, mouse, in vivo, ip; mice, intraperitoneal, mortality after 24 h; confidence limits in parentheses
Experimental: as §1, §2

[7] = Mus musculus, ip, dose 25 mg/kg, read-out: Degree of motor inhibition (%)
[8] = Mus musculus, ip, dose 50 mg/kg, read-out: Degree of motor inhibition (%)
[9] = Mus musculus, ip, 0.5 h, dose 100 mg/kg, read-out: Prolonged Time (%)
[10] = Mus musculus, ip, 0.5 h, dose 200 mg/kg, read-out: Prolonged Time (%)
[11] = Mus musculus, ip, dose 100 mg/kg, read-out: Degree of motor inhibition (%)
[12] = confidence limits in parentheses
[13] = Mus musculus, ip, dose 200 mg/kg, read-out: Degree of motor inhibition (%)
[14] = Mus musculus, ip, 0.5 h, read-out: Prolonged Time (%)

Row | Compound | ED50 (mice [4]; Mus musculus, ip) [mg/kg] | inhibition at 25 mg/kg (mice [4]; [7]) [%] | inhibition at 50 mg/kg (mice [4]; [8]) [%] | Number of impulses ± SEM (30min) (mice [4]; dose 25 mg/kg) | Number of impulses ± SEM (30min) (mice [4]; dose 50 mg/kg) | change in vivo at 100 mg/kg (mice [5]; [9]) [%] | change in vivo at 200 mg/kg (mice [5]; [10]) [%] | Time of Reaction to Pain Stimulus (s) ± SEM (mice [5]; dose 100 mg/kg) [s] | Time of Reaction to Pain Stimulus (s) ± SEM (mice [5]; dose 200 mg/kg) [s] | Mean no. of writhing ± SEM (mice [6]; i.p., dose 12.5 mg/kg) | Mean no. of writhing ± SEM (mice [6]; i.p., dose 25 mg/kg) | LD50 at 24 h (in vivo) [mg/kg] | inhibition at 100 mg/kg (mice [4]; [11]) [%] | Number of impulses ± SEM (30min) (mice [4]; dose 100 mg/kg) | ED50 (mice [6]; [12]) [mg/kg] | Mean no. of writhing ± SEM (mice [6]; i.p., dose 50 mg/kg) | Mean no. of writhing ± SEM (mice [6]; i.p., dose 100 mg/kg) | other results
1 | COc1nc(C)cc2c1C(=O)N(CN1CCOCC1)C2=O [Compound 1Q] |  |  |  |  |  |  |  |  |  |  |  |  |  |  |  |  |  | Thiopental Anesthesia % Prolong. (mice [1]; dose 44 mg/kg): 141.7 ** %; ED50, writhing test (mice [2]): 13.66 mg/kg; % Inh. of locomotor activity (mice [3]; dose 44 mg/kg): 42.65 * %
2 | COc1ccccc1N1CCN(CCCCN2C(=O)c3cc(C)nc(OC)c3C2=O)CC1 [Compound 1R] |  |  |  |  |  |  |  |  |  |  |  |  |  |  |  |  |  | Thiopental Anesthesia % Prolong. (mice [1]; dose 50 mg/kg): 159.12%; Thiopental Anesthesia % Prolong. (mice [1]; dose 100 mg/kg): 255.97%; ED50, writhing test (mice [2]): 6.8 mg/kg; % Inh. of locomotor activity (mice [3]; dose 100 mg/kg): 82.32 ** %
3 | COc1nc(C)cc2c1C(=O)N(CCCCN1CCOCC1)C2=O [Compound 8, 4-methoxy-6-methyl-4-(N-morpholino)-butyl-1H-pyrrolo[3,4-c]pyridine-1,3-(2H)-dion] | 34.2 | 35.4 | 61.6 | 299 ± 59 | 178 ± 30 | 3.87 | 27.5 | 10.2 ± 1.8 | 12.2 ± 1.4 | 19.8 ± 2.1 | 6.2 ± 0.9 | > 2000 |  |  |  |  |  | inhibition at 5 mg/kg (mice [4]; Mus musculus, ip, dose 5 mg/kg, read-out: Degree of motor inhibition (%)): 18.1%; inhibition at 12.5 mg/kg (mice [4]; Mus musculus, ip, dose 12.5 mg/kg, read-out: Degree of motor inhibition (%)): 32.8%; Number of impulses ± SEM (30min) (mice [4]; dose 5 mg/kg): 387 ± 24; Number of impulses ± SEM (30min) (mice [4]; dose 12.5 mg/kg): 312 ±26; analgesic effect in the hot plate test (in words) (mice [5]): not statistically significant
4 | CCOc1nc(C)cc2c1C(=O)N(CCN1CCN(c3ccccc3)CC1)C2=O [Compound 10] | 84 ± 5.1 | 49.2 | 55.1 | 224 ± 45 | 198 ± 54 | 6.98 | 34.9 | 18.4 ± 1.7 | 23.2 ± 2.6 |  | 7.9 ± 2.1 | > 2000 | 6.8 | 142 ± 29 | 15.8 ± 0.91 | 2.1 ± 0.6 | 0.9 ± 0.1 | analgesic effect in the hot plate test (in words) (mice [5]): not statistically significant
5 | CCOc1nc(C)cc2c1C(=O)N(CCN1CCN(c3ccccc3OC)CC1)C2=O [Compound 12] | 85 ± 4.2 | 11.8 | 34.5 | 389 ± 54 | 289 ± 72 | 28.5 | 52.3 | 22.1 ± 2.7 | 26.2 ± 3.1 | 13.9 ± 2.3 | 9.7 ± 1.1 | > 2000 | 59.2 | 180 ± 41 | 14.9 ± 2.01 | 2.4 ± 0.3 | 1.9 ± 0.4 | inhibition at 200 mg/kg (mice [4]; [13]): 76.2%; Number of impulses ± SEM (30min) (mice [4]; dose 200 mg/kg): 105 ± 48
6 | COc1nc(C)cc2c1C(=O)N(CN1CCN(c3cccc(Cl)c3)CC1)C2=O [Compound 13] | 164 ± 28.7 |  | 7.93 |  | 406 ± 34 | 4.07 | 11.6 | 17.9 ± 2.4 | 19.2 ± 1.8 | 14.1 ± 1.0 | 5.9 ± 0.8 | > 2000 | 32.2 | 299 ± 49 | 14.8 | 3.8 ± 1.9 | 0.8 ± 0.1 | inhibition at 200 mg/kg (mice [4]; [13]): 59.6%; Number of impulses ± SEM (30min) (mice [4]; dose 200 mg/kg): 178 ± 32
7 | CN1CC[C@]23c4c5ccc(O)c4O[C@H]2[C@@H](O)C=C[C@H]3[C@H]1C5 [Morphine, reference compound] |  |  |  |  |  |  |  |  |  |  |  |  |  |  |  |  |  | change in vivo at 1 mg/kg (mice [5]; [14]): 33.8%; change in vivo at 3 mg/kg (mice [5]; [14]): 104%; change in vivo at 6 mg/kg (mice [5]; [14]): 111%; ED50 (mice [5]; Mus musculus, read-out: ED50, hot plate test): 2.55 mg/kg; Time of Reaction to Pain Stimulus (s) ± SEM (mice [5]; dose 1 mg/kg): 19.4 ± 2.1 s; Time of Reaction to Pain Stimulus (s) ± SEM (mice [5]; dose 3 mg/kg): 29.6 ± 6 s; Time of Reaction to Pain Stimulus (s) ± SEM (mice [5]; dose 6 mg/kg): 30.6 ± 3.9 s; ED50 (mg/kg) ± SEM, writhing test (mice [6]; i.p., confidence limits in parentheses): 2.44 mg/kg; Mean no. of writhing ± SEM (mice [6]; i.p., dose 1 mg/kg): 16.2 ± 3.51; Mean no. of writhing ± SEM (mice [6]; i.p., dose 3 mg/kg): 7.5 ± 2.9; Mean no. of writhing ± SEM (mice [6]; i.p., dose 10 mg/kg): 1.2 ± 0.8
